Laboratory results as given in patent US6620841B1, “Aromatic heterocycle compounds having HIV integrase inhibiting activities” (Shionogi & Co., Ltd., priority 1998, dated 2003).
Counter-ions that a name gives are not always drawn.

Legend:
[1] = molecular target: HIV-1 integrase (Human immunodeficiency virus type 1 group M subtype B, UniProt P12497); experiment: HIV-1 integrase inhibition assay (microtiter plate, substrate/target DNA, OD 405 nm)
Protocol: (2) Calculations of the Percent Inhibitions (the IC50 Values of Test Compounds)
Streptavidin, obtained from Vector Laboratories, was dissolved in 0.1 M carbonate buffer (composition: 90 mM Na2CO3, 10 mM NaHCO3) at concentration of 40 μg/ml. After coating each well of microtiter plates (obtained from NUNC) with 50 μl of the above solution at 4° C. over night, each well was washed twice with PBS (composition: 13.7 mM NaCl, 0.27 mM KCl, 0.43 mM Na2HPO4, 0.14 mM KH2PO4) and blocked with 300 μl of 1% skim milk in PBS for 30 min. Additionally, each well was washed twice with PBS and added 50 μl of substrate DNA solution (2 pmol/μl). The microtiter plates were kept at room temperature for 30 min. Then, each well was washed twice with PBS and once with H2O.
Subsequently, in the each well prepared above were added 45 μl of the reaction buffer prepared from 12 μl of the buffer (composition: 150 mM MOPS (pH 7.2), 75 mM MnCl2, 50 mM 2-mercaptoethanol, 25% glycerol, 500 μg/ml bovine serum albumin-fraction V), 1 μl of target DNA (5 pmol/μl), and 32 μl of the distilled water. Additionally, 6 μl of either a test compound in DMSO or DMSO for positive control(PC) was mixed with the above reaction buffer, then 9 μl of an integrase solution (30 pmol) was added and mixed well. In the well of negative control (NC) was added 9 μl of the integrase dilution buffer (composition: 20 mM MOPS (pH7.2), 400 mM potassium glutamate, 1 mM EDTA, 0.1% NP-40, 20% glycerol, 1 mM DTT, 4M urea).
The microtiter plates were incubated at 30° C. for 1 hour. The reaction solution was removed and each well was washed twice with PBS. Subsequently, each well of the microtiter plates was filled with 100 μl of anti-digoxigenin antibody labeled with alkaline phosphatase (Sheep Fab fragment: obtained from Boehringer) and incubated at 30° C. for 1 hour. Then, each well was washed twice with 0.05% Tween20 in PBS and once with PBS. Next, 150 μl of the Alkaline phosphatase reaction buffer (composition: 10 mM p-Nitrophenylphosphate (obtained from Vector Laboratories), 5 mM MgCl2, 100 mM NaCl, 100 mM Tris-HCl (pH 9.5))was added in each well. […] The optical density (OD) at 405 nm of each well was measured and the percent inhibition was determined by the following expression.
The percent inhibition (%)=100[1-{(C abs.−NC abs.)/(PC abs.−NC abs.)}]
C abs.; the OD of the well of the compounds
NC abs.: the OD of the negative control (NC)
PC abs.: the OD of the positive control (PC)
IC50(μg/ml)=x−{(X−50)(x−y)/(X−Y)}

SMILES	melting point	IC50 [1] [µM]
O=C(C=C(O)c1ncc[nH]1)c1ccc(Cc2ccc(F)cc2)o1 (as salt: hydrochloride) [I-101, 1-[5-(4-Fluorobenzyl)furan-2-yl]-3-hydroxy-3-(1H-imidazol-2-yl)-propenone hydrochloride]	186 to 191 °C	–
O=C(/C=C(\O)c1nc[nH]n1)c1cc(C(=O)O)n(Cc2ccccc2)c1 [I-2, 1-[(1-Benzyl-5-carboxy)pyrrol-3-yl]-3-hydroxy-3-(1H-1,2,4-triazol-3-yl)-propenone]	264 to 265 °C	2.96
O=C(O)C(O)=CC(=O)c1cc[nH]c1 [I-22, 2-Hydroxy-4-oxo-4-(pyrrol-3-yl)-2-butenoic acid]	185 to 192 °C	–
O=C(O)C(O)=CC(=O)c1ccn(S(=O)(=O)c2ccccc2)c1 [I-23, 4-(1-Benzenesulfonylpyrrol-3-yl)-2-hydroxy-4-oxo-2-butenoic acid]	186 to 188 °C	–
O=C(C=C(O)c1nc[nH]n1)c1occc1Cc1ccc(F)cc1 [I-45, 1-[3-(4-Fluorobenzyl)furan-2yl]-3-hydroxy-3-(1H-1,2,4-triazol-3-yl)-propenone]	221 to 223 °C	–
O=C(C=C(O)c1nn[nH]n1)c1ccoc1Cc1ccc(F)cc1 [I-52, 1-[2-(4-Fluorobenzyl)furan-3-yl]-3-hydroxy-3-(2H-tetrazol-5-yl)-propenone]	150 to 153 °C	–
COC(=O)C(O)=CC(=O)c1ccc(Cc2ccc(F)cc2)o1 [I-53, 4-[5-(4-Fluorobenzyl)furan-2-yl]-2-hydroxy-4-oxo-2-butenoic acid methyl ester]	102 to 104 °C	7.89
O=C(O)C(O)=CC(=O)c1ccc(Cc2ccc(F)cc2)o1 [I-54, 4-[5-(4-Fluorobenzyl)furan-2-yl]-2-hydroxy-4-oxo-2-butenoic acid]	145 to 148 °C	0.827
Cc1nc(C(O)=CC(=O)c2ccc(Cc3ccc(F)cc3)o2)n[nH]1 [I-60, 1-[5-(4-Fluorobenzyl)furan-2-yl]-3-hydroxy-3-(5-methyl-1H-1,2,4-triazol-3-yl)-propenone]	179 to 182 °C	2.11
Cc1cc(Cc2ccc(F)cc2)oc1C(=O)C=C(O)c1nc[nH]n1 [I-61, 1-[[5-(4-Fluorobenzyl)-3-methyl]furan-2-yl]-3-hydroxy-3-(1H-1,2,4-triazol-3-yl)-propenone]	191 to 192 °C	2.08
O=C(C=C(O)c1nc[nH]n1)c1ccc(Sc2ccc(F)cc2)o1 [I-68, 1-[5-(4-Fluorophenylthio)furan-2-yl]-3-hydroxy-3-(1H-1,2,4-triazol-3-yl)-propenone]	–	0.996
O=C(C=C(O)c1nc[nH]n1)c1ccc(Sc2ccc(F)cc2F)o1 [I-70, 1-[5-(2,4-Difluorophenylthio)furan-2-yl]-3-hydroxy-3-(1H-1,2,4-triazol-3-yl)-propenone]	158 to 160 °C	1.2
O=C(C=C(O)c1ncc[nH]1)c1ccc(Cc2ccc(F)cc2)o1 [I-101, 1-[5-(4-Fluorobenzyl)furan-2-yl]-3-hydroxy-3-(1H-imidazol-2-yl)-propenone hydrochloride]	–	1.7
O=C(C=C(O)c1nccs1)c1ccc(Cc2ccc(F)cc2)o1 [I-104, 1-[5-(4-Fluorobenzyl)furan-2-yl]-3-hydroxy-3-(thiazol-2-yl)-propenone]	–	1.76
O=C(Nc1nc[nH]n1)C(O)=CC(=O)c1ccc(Cc2ccc(F)cc2)o1 [I-138, 4-[5-(4-Fluorobenzyl)furan-2-yl]-2-hydroxy-4-oxo-2-butenoic acid (1H-1,2,4-triazol-3-yl)amide]	250 °C (dec.)	–

Continued, in another order:

melting point	SMILES	IC50 [1] [µM]
210 to 213 °C	O=C(C=C(O)c1nc[nH]n1)c1c[nH]cc1Cc1ccc(F)cc1 [I-14, 1-[4-(4-Fluorobenzyl)pyrrol-3-yl]-3-hydroxy-3-(1H-1,2,4-triazol-3-yl)-propenone]	–
228 to 230 °C	O=C(C=C(O)c1nn[nH]n1)c1c[nH]cc1CCc1ccccc1 [I-25, 3-Hydroxy-1-[(4-(2-phenylethyl))pyrrol-3-yl]-3-(2H-tetrazol-5-yl)-propenone]	–
178 to 181 °C	O=C(C=C(O)c1nn[nH]n1)c1cn(S(=O)(=O)c2ccccc2)cc1CCc1ccccc1 [I-31, 1-[[1-Benzenesulfonyl-4-(2-phenylethyl)]pyrrol-3-yl]-3-hydroxy-3-(2H-tetrazol-5-yl)-propenone]	–
210 to 211 °C	CCCn1cc(Cc2ccc(F)cc2)c(C(=O)C=C(O)c2nc[nH]n2)c1 [I-35, 1-[[4-(4-Fluorobenzyl)-1-n-propyl]pyrrol-3-yl]-3-hydroxy-3-(1H-1,2,4-triazol-3-yl)-propenone]	–
171 to 174 °C	O=C(C=C(O)c1nn[nH]n1)c1occc1Cc1ccc(F)cc1 [I-46, 1-[3-(4-Fluorobenzyl)furan-2-yl]-3-hydroxy-3-(2H-tetrazol-5-yl)-propenone]	–
170 to 177 °C	O=C(C=C(O)c1nc[nH]n1)c1ccoc1Cc1ccc(F)cc1 [I-49, 1-[2-(4-Fluorobenzyl)furan-3-yl]-3-hydroxy-3-(1H-1,2,4-triazol-3-yl)-propenone]	–
121 to 123 °C	O=C(C=C(O)c1nn[nH]n1)c1ccc(Cc2ccc(F)cc2)o1 [I-55, 1-[5-(4-Fluorobenzyl)furan-2-yl]-3-hydroxy-3-(2H-tetrazol-5-yl)-propenone]	–
84 to 85 °C	O=C(C=C(O)c1ccccn1)c1ccc(Cc2ccc(F)cc2)o1 [I-106, 1-[5-(4-Fluorobenzyl)furan-2-yl]-3-hydroxy-3-(pyridin-2-yl)-propenone]	–
113 to 115 °C	NC(=O)C(O)=CC(=O)c1ccc(Cc2ccc(F)cc2)o1 [I-134, 4-[5-(4-Fluorobenzyl)furan-2-yl]-2-hydroxy-4-oxo-2-butenoic acid amide]	–
> 250 °C	O=C(Nc1ccccn1)C(O)=CC(=O)c1ccc(Cc2ccc(F)cc2)o1 [I-135, 4-[5-(4-Fluorobenzyl)furan-2-yl]-2-hydroxy-4-oxo-2-butenoic acid pyridin-2-yl amide]	–
198 °C (dec.)	O=C(Nc1nccs1)C(O)=CC(=O)c1ccc(Cc2ccc(F)cc2)o1 [I-136, 4-[5-(4-Fluorobenzyl)furan-2-yl]-2-hydroxy-4-oxo-2-butenoic acid thiazol-2-yl amide]	–
132 to 134 °C	O=C(Nc1ccccc1)C(O)=CC(=O)c1ccc(Cc2ccc(F)cc2)o1 [I-137, 4-[5-(4-Fluorobenzyl)furan-2-yl]-2-hydroxy-4-oxo-2-butenoic acid phenyl amide]	–
199 to 201 °C (dec.)	O=C(Nc1nncs1)C(O)=CC(=O)c1ccc(Cc2ccc(F)cc2)o1 [I-139, 4-[5-(4-Fluorobenzyl)furan-2-yl]-2-hydroxy-4-oxo-2-butenoic acid ([1,3,4]thiadiazol-2-yl)amide]	–
108 to 109 °C	O=C(C=C(O)c1ccccn1)c1cnc(Cc2ccc(F)cc2)o1 [I-151, 1-[2-(4-Fluorobenzyl)oxazolyl-5-yl]-3-hydroxy-3-(pyridin-2-yl)-propenone]	–
97 to 100 °C	O=C(C=C(O)c1ncccn1)c1cnc(Cc2ccc(F)cc2)o1 [I-152, 1-[2-(4-Fluorobenzyl)oxazolyl-5-yl]-3-hydroxy-3-(pyrimidin-2-yl)-propenone]	–
